Source: patent publication EP2272817A1, “PAI-1 INHIBITOR” (Institute of Medicinal Molecular Design, Inc., priority 2008, dated 2009)
Where two headings read alike, the source gives them in different places.

How the values were obtained:
recombinant human PAI-1 [1] = target: T1, recombinant human PAI-1 (Homo sapiens, UniProt P05121); experiment: biochemical
recombinant human PAI-1 [2] = target: T1, recombinant human PAI-1; experiment: Test Example 4: Human PAI-1 Inhibitory Activity (amount of PAI-1 bound to plate-coated one-chain tPA, ELISA); format: biochemical; design: purchased Molecular Innovations, Inc; conditions: human PAI-1 bound to tPA, read-out: Inhibition Rate of PAI-1 Activity (%); for inhibition at 0.3 µM: Compound Concentration 0.3µM; for inhibition at 1 µM: Compound Concentration 1µM; for inhibition at 3 µM: Compound Concentration 3µM
Description: 100 µl of tPA solution, where one-chain recombinant tPA (hereinafter reffered to as tPA; American diagnostica, inc.) had been diluted with Buffer A to acheive a concentration of 10 µg/ml, was added to each well of a 96-well plate (Nunc Maxisorp), and the plate was incubated for one night at 4 °C to be coated with tPA. Then, after suction of tPA solution from the 96-well plate, the plate was rinsed successively with Buffer A and Buffer B. To Buffer B, solutions of the compound according to the present invention dissolved with DMSO (final DMSO concentration: 0.2 %) and recombinant human PAI-1 (Molecular Innovations, Inc.) were added. The mixtures were blended so that the final concentrations would be 0.1 to 3.0 µM and 50 ng/ml respectively, and were incubated for 15 minutes on ice. These mixed solutions were added to the rinsed 96-well plate at 100 µl/well, and incubated for 60 minutes at room temperature. To prepare a calibration curve, PAI-1 solutions without the compound according to the present invention (solutions where the final concentrations being 100, 50, 25, 12.5, 6.25, 3.13, or 1.56 ng/ml PAI-1) were added at 100 µl/well, and the plate was incubated for 60 minutes at room temperature, as standard.
After incubation, the reaction mixture was removed by suction, and each well was rinsed with Wash Buffer. Next, anti-human PAI-1 monoclonal antibody (PROGEN Inc.) diluted with Buffer C to be 3.0 µg/ml was added to the 96-well plate at 100 µl/well, and the plate was incubated for 1 hour at room temperature. After rinsing each well with Wash Buffer, alkaline phosphatase-labeled goat anti-mouse IgG (H+L) (Jackson ImmunoResearch, Inc.) diluted with Buffer D to be 0.12 µg/ml was added at 100 µl/well, and the plate was incubated for 1 hour at room temperature. After rinsing each well with Wash Buffer, 1.0 mg/ml p-Nitrophenyl Phosphate (SIGMA) was added to the 96-well plate at 100 µl/well to start the reaction. After 30 to 60 minutes, 25 µl of 0.5 N NaOH was added to stop the reaction, and the absorbance was measured at 405 nm using a multiplate reader (GENios; TECAN G.M.B.H.).
Based on the calibration curve prepared from the standard wells, amounts of PAI-1 bound to tPA in the wells that had been treated with the compound according to the present invention were calculated, and the PAI-1 inhibition rates by the compounds according to the present invention were obtained by the following equation. [API-1InhibitionRate(%)] = [1-(amountofPAI-1boundtotPaonthewellbytreatmentwiththecompondaccordingtothepresentinvention)/(amountofPAI-1boundtotPAonthewellbytreatmentwithPAI-1solutionnotincledingthecompondaccordingtotheinvention(solution having the final concentration of 50 nb/ml PAI-1)] × 100 [formula] • <Composition of Buffer A> 0.1 M Tris-HCl, 150 mM NaCl, pH 7.7 • <Composition of Buffer B> 50 mM sodium phosphate, 0.1 M NaCl, 1 mM EDTA, pH 6.6 • <Composition of Buffer C> 50 mM sodium phosphate, 100 mM NaCl, pH 7.4 • <Composition of Buffer D> 0.01 M Tris-HCl, 0.25 M NaCl, pH 8.0 • <Compositon of Wash Buffer> 0.05 % Tween 20, 0.1 % BSA in Buffer A • <Composition of p-Nitrophenyl Phosphate solution> 1 M Diethanolamine 0.5 mM MgCl2, p-Nitrophenyl phosphate, pH 9.8

recombinant rat PAI-1 = target: T2, recombinant rat PAI-1 (Rattus norvegicus, UniProt P20961); experiment: biochemical; conditions: read-out: Inhibition Rate of PAI-1 Activity (%)
T2 sequence (P20961 24-402): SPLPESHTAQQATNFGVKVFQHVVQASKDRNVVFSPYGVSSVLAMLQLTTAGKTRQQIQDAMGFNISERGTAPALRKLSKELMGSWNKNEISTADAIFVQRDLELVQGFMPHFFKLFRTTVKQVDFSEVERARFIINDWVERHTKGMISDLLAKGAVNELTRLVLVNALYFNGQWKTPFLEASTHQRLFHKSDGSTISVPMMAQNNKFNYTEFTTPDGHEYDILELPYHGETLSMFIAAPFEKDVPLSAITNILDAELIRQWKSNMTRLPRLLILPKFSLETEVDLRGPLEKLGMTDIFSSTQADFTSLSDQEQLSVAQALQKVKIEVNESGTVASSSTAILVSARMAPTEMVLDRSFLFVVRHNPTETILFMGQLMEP

recombinant human PAI-1 [3] = target: T1, recombinant human PAI-1; experiment: Test Example 2: Human PAI-1 Inhibitory Activity (pH 7.4 HEPES buffer, 10 minutes incubation with two-chain tPA); format: biochemical; design: purchased Molecular Innovations, Inc; conditions: read-out: Inhibition Rate of PAI-1 Activity (%)
Description: 0.1 M HEPES, 0.1 M NaCl. 1 mM EDTA. 0.1 % Polyethylene glycol 8,000 (Hampton Research Corporation),
2 mM Dimethyldecylphoshine oxide [Apo-10] (Fluka Corporation)

[4] = read-out: Inhibition Rate of PAI-1 Activity (%), Compound Concentration 5µM
[5] = read-out: Inhibition Rate of PAI-1 Activity (%), Compound Concentration 10µM
[6] = read-out: Inhibition Rate of PAI-1 Activity (%), Compound Concentration 25µM
[7] = read-out: Inhibition Rate of PAI-1 Activity (%)

T1 sequence (P05121 24-402): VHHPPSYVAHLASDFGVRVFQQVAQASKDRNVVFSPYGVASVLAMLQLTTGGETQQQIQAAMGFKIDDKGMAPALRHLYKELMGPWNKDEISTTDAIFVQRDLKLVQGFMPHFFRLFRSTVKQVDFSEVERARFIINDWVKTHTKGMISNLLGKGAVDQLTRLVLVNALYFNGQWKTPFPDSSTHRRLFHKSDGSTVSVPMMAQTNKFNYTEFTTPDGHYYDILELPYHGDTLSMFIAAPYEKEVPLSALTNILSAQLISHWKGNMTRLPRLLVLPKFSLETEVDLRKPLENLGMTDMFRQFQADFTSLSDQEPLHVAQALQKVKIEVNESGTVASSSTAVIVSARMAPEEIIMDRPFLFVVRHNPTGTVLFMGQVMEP

Compound	inhibition at 5 µM (recombinant human PAI-1 [1]; read-out: Inhibition Rate of PAI Activity (%), Compound Concentration 5µM) [%]	inhibition at 10 µM (recombinant human PAI-1 [1]; read-out: Inhibition Rate of PAI Activity (%), Compound Concentration 10µM) [%]	inhibition at 0.3 µM (recombinant human PAI-1 [2]) [%]	inhibition at 1 µM (recombinant human PAI-1 [2]) [%]	inhibition at 3 µM (recombinant human PAI-1 [2]) [%]	inhibition at 0.3 µM (recombinant rat PAI-1) [%]	inhibition at 1 µM (recombinant rat PAI-1) [%]	inhibition at 3 µM (recombinant rat PAI-1) [%]	inhibition at 10 µM (recombinant rat PAI-1) [%]	inhibition at 0.1 µM (recombinant human PAI-1 [3]) [%]	inhibition at 0.3 µM (recombinant human PAI-1 [3]) [%]	inhibition at 1 µM (recombinant human PAI-1 [3]) [%]	inhibition at 3 µM (recombinant human PAI-1 [3]) [%]	inhibition at 5 µM (recombinant human PAI-1 [1]; [4]) [%]	inhibition at 10 µM (recombinant human PAI-1 [1]; [5]) [%]	inhibition at 25 µM (recombinant human PAI-1 [1]; [6]) [%]	inhibition at 5 µM (recombinant human PAI-1 [1]; [7]) [%]	inhibition at 10 µM (recombinant human PAI-1 [1]; [7]) [%]	inhibition at 25 µM (recombinant human PAI-1 [1]; [7]) [%]
CC(C)(C)c1ccc(Oc2ccc(-c3ccc(OC(F)(F)F)cc3)cc2CCC(=O)O)cc1 [Compound 13]	83	93	7	14	41	0	14	69	> 99	5	8	36	99						
CC(C)(C)c1ccc(COc2cc(Oc3ccc(OC(F)(F)F)cc3)ccc2CCC(=O)O)cc1 [Compound 78]			20	39	83	0	4	71	90	0	4	21	96	24	60	98			
CC(C)(C)c1ccc(Oc2cc(-c3ccc(OC(F)(F)F)cc3)ccc2CCC(=O)O)cc1 [Compound 80]			0	0	29	0	11	71	84	3	11	44	> 99				43	82	94
CC(C)(C)c1ccc(CN(C(=O)C(=O)O)c2ccc(OCc3ccccc3)c(-c3ccc(OC(F)(F)F)cc3)c2)cc1 [Compound 212]						8	40	73	67	5	15	64	98				78	95	
CCN(CC)c1ccc(N(Cc2ccc(C(C)(C)C)cc2)C(=O)C(=O)O)cc1-c1ccc(OC(F)(F)F)cc1 [Compound 213]						8	26	90	78	0	10	48	98				93	84	
CN(C)c1ccc(N(Cc2ccc(C(C)(C)C)cc2)C(=O)C(=O)O)cc1-c1ccc(OC(F)(F)F)cc1 [Compound 214]						0	8	77	97	4	2	40	96				87	93	
Cc1cc(N(C)C)c(-c2ccc(OC(F)(F)F)cc2)cc1N(Cc1ccc(C(C)(C)C)cc1)C(=O)C(=O)O [Compound 215]						2	16	84	97	7	18	54	95				90	92	
CC(C)(C)c1ccc(C(c2ccccc2)N(C(=O)C(=O)O)c2ccc(-c3ccc(OC(F)(F)F)cc3)cc2)cc1 (stereo not shown) [Compound 222]						3	32	91		0	3	45	> 99	74	91				
CCCCOc1ccc(N(CCCCc2ccccc2)C(=O)C(=O)O)cc1-c1ccc(OC(F)(F)F)cc1 [Compound 227]						0	14	77	95	0	7	41	98				63	90	
CCC(CC)Oc1ccc(N(CCCc2ccccc2)C(=O)C(=O)O)cc1-c1ccc(OC(F)(F)F)cc1 [Compound 230]						0	13	83	94	0	8	27	96	75	95	92			
CCCCOc1ccc(-c2ccc(OC(F)(F)F)cc2)cc1N(CCCCc1ccccc1)C(=O)C(=O)O [Compound 231]						3	18	89	> 99	0	6	34	98	81	97	94			
CCN(CC)c1ccc(N(CCCc2ccccc2)C(=O)C(=O)O)c(-c2ccc(OC(F)(F)F)cc2)c1 [Compound 238]						0	8	46	98	0	0	21	87	76	95	93			
